{"source": "patent US20160193364A1", "about": "“COMPOSITIONS AND METHODS FOR MODULATING MITOCHONDRIAL PYRUVATE CARRIER ACTIVITY” (University of Utah Research Foundation, priority 2012, published 2016)", "key": {"MPC1-D118G": {"biological_target": "T1, MPC1-D118G (Saccharomyces cerevisiae, UniProt P38857+P53157, D118G)", "T1 construct": "expressed in transfected cells; host or cells: S. cerevisiae mpc1Δ strain carrying an MPC1-D118G plasmid; isolated mitochondria", "T1 sequence (P53157 whole entry D118G, one chain of several)": "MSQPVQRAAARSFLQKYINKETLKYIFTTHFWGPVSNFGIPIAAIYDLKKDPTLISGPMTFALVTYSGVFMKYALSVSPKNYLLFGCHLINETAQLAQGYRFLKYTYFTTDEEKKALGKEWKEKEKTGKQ", "experiment": "14C-pyruvate uptake into isolated yeast mitochondria expressing MPC1-D118G", "type": "biochemical", "details": "0.2 mM UK-5099, 2 min preincubation, vs DMSO", "method": "(§1) Yeast mitochondria were isolated using a simplified version of the method described by Boldogh and Pon [Wittig et al., 2006]. Briefly, yeast were grown in synthetic 2% raffinose media to an A600˜3.0 and collected. The cells were pelleted, washed with sterile water, re-pelleted, and then frozen at −80° C. Mitochondrial isolation began by thawing the cells on ice, digesting the cell wall with lyticase (Sigma) for one hour to generate spheroplasts. Following 40 minutes in regeneration buffer, spheroplasts were lysed using a Dounce homogenizer. The mitochondria were further purified through several high and low speed centrifugation steps.\n(§2) Mitochondria used for pyruvate uptake experiments were extracted from live cells, kept on ice and used within 5 hours of harvest without freezing. An estimate of mitochondrial concentration was calculated using A280. Samples were then diluted to yield equal mitochondrial mass and centrifuged at 10000 rpm for 10 minutes to pellet mitochondria. The supernatant was then removed and the mitochondrial pellet was resuspended in respiratory buffer (120 mM KCl, 5 mM KH2PO4, 1 mM EGTA, and 3 mM HEPES pH 7.4) and placed on ice.\n(§3) To initiate pyruvate uptake, 50 μL of mitochondria was added to 100 μL of room temperature respiratory buffer at pH 6.8 in a microcentrifuge tube. […] Five biological replicates were analyzed per group. […]"}, "MPC1": {"biological_target": "T2, MPC1 (Saccharomyces cerevisiae, UniProt P38857+P53157)", "T2 construct": "expressed in transfected cells; host or cells: S. cerevisiae mpc1Δ strain carrying an MPC1 plasmid; isolated mitochondria", "T2 sequence (P53157 1-130)": "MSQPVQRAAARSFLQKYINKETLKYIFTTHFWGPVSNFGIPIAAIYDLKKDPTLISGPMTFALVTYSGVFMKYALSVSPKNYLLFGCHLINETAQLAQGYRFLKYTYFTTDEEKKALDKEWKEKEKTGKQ", "T2 sequence (P38857 1-129)": "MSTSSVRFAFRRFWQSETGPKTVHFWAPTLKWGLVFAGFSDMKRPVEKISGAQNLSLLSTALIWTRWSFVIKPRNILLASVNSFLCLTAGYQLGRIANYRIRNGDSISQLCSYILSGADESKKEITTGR", "experiment": "14C-pyruvate uptake into isolated yeast mitochondria expressing wild-type MPC1", "type": "biochemical", "details": "0.2 mM UK-5099, 2 min preincubation, vs DMSO", "method": "as §1, §2, §3"}, "mae1Δmpc1Δ double mutant": {"test_system": "mae1Δmpc1Δ double mutant", "experiment": "Growth of mae1Δmpc1Δ yeast expressing wild-type MPC1 on glucose medium lacking leucine", "type": "cell-based, Saccharomyces cerevisiae", "details": "rescue by transgenic wild-type MPC1; 500 μM UK-5099 in plates", "text": "Saccharomyces cerevisiae haploid strain BY4741 (MATa his3 leu2 met15 ura3) was used as the parental wild-type strain in the mae1Δ mpc1Δ spot tests and JRY472 (W303a MATa his3 leu2 met15 trp1 ura3) was used as the strain for all other experiments. Single deletion mutations were created in diploid strains by the standard PCR-based homologous recombination method using KanMX4 (kanamycin resistance), NatMX4 (nourseothricin resistance), or HphMX4 (hygromycin B resistance) cassettes to replace the entire gene, followed by sporulation and tetrad dissection to isolate the desired haploid knockout. Double and triple deletion mutants were created by standard crosses. Deletion strains were verified by PCR.\nA plasmid library harboring MPC1 mutants was generated by PCR mutagenesis using methods previously described [Hinman et al., 1981]. mpc1Δ mpc3Δ mae1Δ triple mutant yeast cells were transformed with the MPC1 mutant library and plated onto SD-Ura-Leu supplemented 500 μM UK-5099. […] To quantify UK-5099 resistance conferred by the D118G substitution, uniform suspensions of mpc1Δ mpc3Δ mae1Δ triple mutant yeast cells were transformed with 2 μg empty vector, plasmid harboring wild-type MPC1, or plasmid harboring MPC1 D 118G, and then plated onto either SD-Ura, SD-Ura-Leu, or SD-Ura-Leu plus 500 μM UK-5099."}, "[1]": {"biological_target": "T3, mitochondrial pyruvate carrier (Rattus norvegicus, UniProt P38718+P63031)", "T3 sequence (P63031 1-109)": "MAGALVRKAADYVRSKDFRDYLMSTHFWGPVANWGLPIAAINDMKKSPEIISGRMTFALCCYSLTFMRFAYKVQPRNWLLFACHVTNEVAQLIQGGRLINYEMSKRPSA", "T3 sequence (P38718 1-127)": "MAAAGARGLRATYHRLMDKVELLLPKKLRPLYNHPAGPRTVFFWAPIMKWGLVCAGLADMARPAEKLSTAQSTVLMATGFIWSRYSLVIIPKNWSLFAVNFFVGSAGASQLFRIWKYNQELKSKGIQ", "details": "Halestrap 1975; cited from earlier work"}, "MPC1 D118G": {"test_system": "MPC1 D118G", "experiment": "Growth of yeast expressing MPC1 D118G in the presence of UK-5099", "type": "cell-based, Saccharomyces cerevisiae", "details": "D118G substitution in MPC1; 500 μM UK-5099 in plates", "method": "A plasmid library harboring MPC1 mutants was generated by PCR mutagenesis using methods previously described [Hinman et al., 1981]. mpc1Δ mpc3Δ mae1Δ triple mutant yeast cells were transformed with the MPC1 mutant library and plated onto SD-Ura-Leu supplemented 500 μM UK-5099. Plates were incubated at 30° C. for 72 hours and mutant plasmids were isolated from viable colonies, amplified in E. coli., and then transformed into naive mpc1Δ mpc3Δ mae1Δ triple mutant yeast cells to confirm the conferral of resistance to UK-5099. An MPC1 mutant containing a D118G substitution was recovered from this screen. To quantify UK-5099 resistance conferred by the D118G substitution, uniform suspensions of mpc1Δ mpc3Δ mae1Δ triple mutant yeast cells were transformed with 2 μg empty vector, plasmid harboring wild-type MPC1, or plasmid harboring MPC1 D 118G, and then plated onto either SD-Ura, SD-Ura-Leu, or SD-Ura-Leu plus 500 μM UK-5099."}}, "data": [{"smiles": "N#C/C(=C\\c1cn(-c2ccccc2)c2ccccc12)C(=O)O", "note": "[UK-5099]", "values": [{"measurement": "14C-pyruvate uptake into mitochondria", "setting": "MPC1-D118G", "result": "efficient pyruvate uptake that is resistant to UK-5099"}, {"measurement": "14C-pyruvate uptake into mitochondria", "setting": "MPC1", "result": "almost completely inhibited"}, {"measurement": "growth on glucose medium lacking leucine", "setting": "mae1Δmpc1Δ double mutant", "result": "effectively rescued by transgenic expression of wild-type MPC1 in the absence, but not the presence, of UK-5099"}, {"measurement": "inhibition of carrier activity", "setting": "[1]", "result": "specific and potent inhibitors of carrier activity"}, {"measurement": "growth in the presence of UK-5099", "setting": "MPC1 D118G", "result": "conferred UK-5099 resistance"}]}]}
